Patent publication USRE39616E1, “Aminoindan derivatives” (priority 1996, dated 2007)
pIC50: −log10 of the molar value. Like-named read-outs stand apart in the source and are kept apart here.

Assays:
MAO-B [1] = biological target: T1, MAO-B (Rattus norvegicus, UniProt P19643); experiment: Inhibition of MAO activity in vitro, PEA as substrate; type: biochemical; set-up: The MAO enzyme source was a homogenate of rat brain in 0.3M sucrose; from tissue; host or cells: rat brain homogenate, 600 g supernatant
T1 sequence (P19643 1-520): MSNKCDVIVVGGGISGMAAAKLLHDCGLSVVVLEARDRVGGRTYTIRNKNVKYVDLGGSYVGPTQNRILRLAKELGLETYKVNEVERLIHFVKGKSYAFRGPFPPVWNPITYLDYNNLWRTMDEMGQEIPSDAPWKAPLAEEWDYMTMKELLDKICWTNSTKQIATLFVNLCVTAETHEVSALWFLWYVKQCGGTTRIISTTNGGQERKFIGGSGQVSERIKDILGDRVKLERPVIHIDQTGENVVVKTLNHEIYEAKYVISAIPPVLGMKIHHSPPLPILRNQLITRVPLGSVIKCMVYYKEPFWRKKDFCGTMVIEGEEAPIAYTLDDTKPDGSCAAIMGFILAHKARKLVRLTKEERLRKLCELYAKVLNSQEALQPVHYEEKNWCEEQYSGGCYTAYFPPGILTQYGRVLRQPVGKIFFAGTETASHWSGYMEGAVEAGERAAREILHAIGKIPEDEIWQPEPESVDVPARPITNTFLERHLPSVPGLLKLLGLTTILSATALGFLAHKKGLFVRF
Method: (§1) Substrate concentrations used were 50 μM (PEA) and 1 mM (5-HT).

MAO-A [2] = biological target: T2, MAO-A (Rattus norvegicus, UniProt P21396); experiment: Inhibition of MAO activity in vitro, 5-HT as substrate; type: biochemical; set-up: The MAO enzyme source was a homogenate of rat brain in 0.3M sucrose; from tissue; host or cells: rat brain homogenate, 600 g supernatant; settings: 5-HT substrate
T2 sequence (P21396 1-526): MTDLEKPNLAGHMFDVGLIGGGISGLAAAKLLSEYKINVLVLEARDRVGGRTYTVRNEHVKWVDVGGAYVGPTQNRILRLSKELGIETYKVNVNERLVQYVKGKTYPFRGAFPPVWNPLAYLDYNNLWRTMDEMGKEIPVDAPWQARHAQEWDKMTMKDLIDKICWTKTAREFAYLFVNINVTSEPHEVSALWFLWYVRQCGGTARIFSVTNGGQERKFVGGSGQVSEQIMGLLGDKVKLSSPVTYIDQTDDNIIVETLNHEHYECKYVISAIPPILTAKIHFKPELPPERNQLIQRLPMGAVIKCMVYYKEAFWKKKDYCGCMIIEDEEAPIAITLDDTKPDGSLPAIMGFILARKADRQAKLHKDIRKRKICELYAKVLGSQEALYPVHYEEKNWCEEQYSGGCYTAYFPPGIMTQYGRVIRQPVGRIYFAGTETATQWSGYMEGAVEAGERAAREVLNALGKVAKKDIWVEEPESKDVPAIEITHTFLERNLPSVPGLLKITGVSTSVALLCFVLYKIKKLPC
Method: as §1

[3] = biological target: T3, Human erythrocyte acetylcholinesterase (Homo sapiens, UniProt P22303); experiment: biochemical; type: biochemical
T3 construct: Human erythrocyte acetylcholinesterase (type XIII, Sigma Israel); purchased Sigma Israel type XIII; host or cells: human erythrocytes
Method: Human erythrocyte acetylcholinesterase (type XIII, Sigma Israel), was prepared in a stock solution of 1 U/ml, containing Triton (1%) and bovine serum albumin (0.05%) in phosphate buffer (pH 8). The enzyme (0.05U) was incubated with 3-5 different concentrations of test compound (in triplicate) for periods of from 15 to 60 minutes at 37° C. […] The percentage inhibition of AChE by each concentration of drug is calculated by comparison with that of enzyme in the absence of drug.

whole brain AChE = biological target: T4, whole brain AChE (Mus musculus, UniProt P21836); settings: for AChE Inhibition Ex vivo ED50 (AC): mice, whole brain, at peak of activity; for AChE Inhibition Time to peak activity t / AChE Inhibition Time to return to 50% of peak t: mouse, in vivo
T4 sequence (P21836 32-614): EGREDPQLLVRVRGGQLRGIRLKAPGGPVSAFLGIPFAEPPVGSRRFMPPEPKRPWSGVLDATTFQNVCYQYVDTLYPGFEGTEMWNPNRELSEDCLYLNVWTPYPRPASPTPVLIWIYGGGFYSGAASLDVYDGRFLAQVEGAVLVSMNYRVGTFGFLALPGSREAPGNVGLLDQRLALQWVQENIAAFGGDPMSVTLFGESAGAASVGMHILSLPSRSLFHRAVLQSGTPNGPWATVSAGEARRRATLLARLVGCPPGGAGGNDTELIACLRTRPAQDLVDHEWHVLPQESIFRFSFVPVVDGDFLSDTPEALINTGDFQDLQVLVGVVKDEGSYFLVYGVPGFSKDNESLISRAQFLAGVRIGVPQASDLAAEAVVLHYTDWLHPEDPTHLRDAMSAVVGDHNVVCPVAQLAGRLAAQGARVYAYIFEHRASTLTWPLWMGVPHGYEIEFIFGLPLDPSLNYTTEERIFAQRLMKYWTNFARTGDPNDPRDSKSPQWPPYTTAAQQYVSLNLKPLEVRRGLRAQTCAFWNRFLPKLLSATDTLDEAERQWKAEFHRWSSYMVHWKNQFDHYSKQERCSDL
Method: Test drugs or saline were administered sub-cutaneously to male mice (Sabra strain, 28-35 g). […] The mice were sacrificed 15, 30, 50, 70, 90, 120 or 180 minutes after drug administration, the brains rapidly removed (minus cerebellum), weighed and homogenized in 0.1 M phosphate buffer, pH 8.0, containing Triton (1 mg/100 g tissue) and centrifuged to remove cell debris. Aliquots (25 μl) of the supernatant were then incubated with acetylthiocholine and DTNB. AChE activity was measured as described above. The % inhibition of whole brain AChE by each dose of drug was calculated by comparison with enzyme activity from 3 saline treated control mice run at the same time.

MAO-B [4] = biological target: T5, MAO-B (Mus musculus, UniProt Q8BW75); experiment: Inhibition of MAO activity ex vivo (brain); type: in vivo, mice; settings: mice, brain tissue
T5 construct: from tissue; host or cells: mouse brain
T5 sequence (Q8BW75 1-520): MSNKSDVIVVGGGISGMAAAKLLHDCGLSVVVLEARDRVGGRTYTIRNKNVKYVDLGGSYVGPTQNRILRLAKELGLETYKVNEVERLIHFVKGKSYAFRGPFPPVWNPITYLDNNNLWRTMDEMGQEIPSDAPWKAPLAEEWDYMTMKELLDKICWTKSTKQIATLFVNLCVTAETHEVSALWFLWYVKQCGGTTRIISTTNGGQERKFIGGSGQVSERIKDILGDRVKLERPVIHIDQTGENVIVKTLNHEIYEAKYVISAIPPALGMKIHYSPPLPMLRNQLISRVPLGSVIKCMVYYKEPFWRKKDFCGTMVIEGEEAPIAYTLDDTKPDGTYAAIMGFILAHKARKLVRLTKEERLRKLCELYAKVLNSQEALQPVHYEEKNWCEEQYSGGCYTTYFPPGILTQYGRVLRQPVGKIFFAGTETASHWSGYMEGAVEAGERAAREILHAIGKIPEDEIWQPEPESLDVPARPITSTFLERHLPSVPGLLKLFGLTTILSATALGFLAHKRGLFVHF
Method: as §1
(§2) Male Sabra mice, weighing 45-50 g were injected with test compound solutions (prepared in 0.9% saline). Each dose was administered to two or three mice. The mice were sacrificed two hours after drug administration or at a time corresponding to the peak AChE inhibition time (see Table 11). The brain and liver were rapidly dissected and stored in appropriate vials on ice. The tissues were weighed, diluted to ½ in sucrose 0.3M and stored at −20° C. before performance of the MAO assay described above. The results given in Table 11 relate to measurements made on brain tissue only.

MAO-A [5] = biological target: T6, MAO-A (Mus musculus, UniProt Q64133); experiment: Inhibition of MAO activity ex vivo (brain); type: in vivo, mice; settings: mice, brain tissue
T6 construct: from tissue; host or cells: mouse brain
T6 sequence (Q64133 1-526): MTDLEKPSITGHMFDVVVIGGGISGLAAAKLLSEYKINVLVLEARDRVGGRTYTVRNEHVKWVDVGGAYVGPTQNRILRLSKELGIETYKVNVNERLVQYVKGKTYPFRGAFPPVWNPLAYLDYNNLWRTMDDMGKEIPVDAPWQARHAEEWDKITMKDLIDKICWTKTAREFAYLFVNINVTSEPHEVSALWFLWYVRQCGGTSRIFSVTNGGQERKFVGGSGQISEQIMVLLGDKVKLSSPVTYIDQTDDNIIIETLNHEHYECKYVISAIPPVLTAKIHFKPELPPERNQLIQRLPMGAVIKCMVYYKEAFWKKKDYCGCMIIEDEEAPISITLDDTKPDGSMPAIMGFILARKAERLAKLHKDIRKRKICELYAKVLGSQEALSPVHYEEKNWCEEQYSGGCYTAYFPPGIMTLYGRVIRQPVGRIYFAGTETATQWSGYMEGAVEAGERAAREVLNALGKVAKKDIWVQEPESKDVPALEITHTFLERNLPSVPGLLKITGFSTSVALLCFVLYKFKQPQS
Method: as §1, §2

[6] = MAO-B Inhibition In vitro IC50, rat brain homogenate
[7] = MAO-A Inhibition In vitro IC50, rat brain homogenate
[8] = rat brain homogenate, read-out: MAO-B Inhibition In vitro IC50
[9] = rat brain homogenate, read-out: MAO-A Inhibition In vitro IC50

T3 sequence (P22303 32-617 isoform P22303-2 limits assumed): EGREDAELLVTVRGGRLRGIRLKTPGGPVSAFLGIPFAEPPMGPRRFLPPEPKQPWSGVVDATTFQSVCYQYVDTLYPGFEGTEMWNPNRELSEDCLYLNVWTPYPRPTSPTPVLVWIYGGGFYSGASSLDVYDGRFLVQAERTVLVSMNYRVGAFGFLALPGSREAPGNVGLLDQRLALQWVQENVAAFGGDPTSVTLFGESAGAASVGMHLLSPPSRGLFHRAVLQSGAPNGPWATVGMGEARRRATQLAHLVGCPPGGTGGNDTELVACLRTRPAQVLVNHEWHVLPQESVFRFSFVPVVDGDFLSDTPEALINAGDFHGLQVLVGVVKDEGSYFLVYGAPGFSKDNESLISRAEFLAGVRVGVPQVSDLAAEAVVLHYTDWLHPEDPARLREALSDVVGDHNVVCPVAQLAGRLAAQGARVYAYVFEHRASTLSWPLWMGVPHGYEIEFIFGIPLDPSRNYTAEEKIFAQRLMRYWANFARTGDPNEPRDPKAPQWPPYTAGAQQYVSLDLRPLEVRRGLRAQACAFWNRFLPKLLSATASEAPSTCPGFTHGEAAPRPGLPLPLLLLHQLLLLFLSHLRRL
Method for mice: Therapeutic Ratio was calculated as LD50 divided by ED50 of ex vivo acetylcholine esterase inhibition.

SMILES	pIC50 (MAO-B [1]; [6])	pIC50 (MAO-A [2]; [7])	Acute Toxicity LD50 (LD) (mice; mouse, in vivo) [µmol/kg]	Therapeutic Ratio LD/AC (mice; mouse, in vivo)	pIC50 ([3]; AChE Inhibition In vitro IC50)	AChE Inhibition Ex vivo ED50 (AC) (whole brain AChE) [µmol/kg]	AChE Inhibition Time to peak activity t (whole brain AChE) [min]	MAO-B Inhibition Ex vivo ED50 (MAO-B [4])	MAO-A Inhibition Ex vivo ED50 (MAO-A [5])	pIC50 (MAO-B [1]; [8])	pIC50 (MAO-A [2]; [9])	pIC50 ([3]; read-out: AChE Inhibition In vitro IC50)	AChE Inhibition Time to return to 50% of peak t (whole brain AChE) [min]	Acute Toxicity LD50 (LD) (mice; mice, within 6 hours after administration) [µmol/kg]
C#CCNC1CCc2c(OC(=O)N(C)C)cccc21 (centres unmarked) [Compound 34]	4.00	6.30	3.7	5.7	7.34	0.65	30							
CCNC1CCc2ccc(OC(=O)N(C)C)cc21 (centres unmarked) [Compound 7]	< 3.00	3.22												
C#CCNC1CCc2ccc(OC(=O)N(C)c3ccc(OC)cc3)cc21 (centres unmarked) [Compound 61]					6.12	47		>100 µmol/kg	>100 µmol/kg	3.30	3.15			
C#CCNC1CCc2ccc(OC(=O)NCCC)cc21 (centres unmarked) [Compound 57]		4.05				70				4.60		5.62		
C#CCNC1CCc2ccc(OC(=O)N(C)Cc3ccccc3)cc21 (centres unmarked) [Compound 63]			1300	9.3	5.60	140	60 to 90	>300 µmol/kg	>300 µmol/kg	3.92	4.40			
C#CCNC1CCc2c(OC(=O)N(C)CC)cccc21 (centres unmarked) [Compound 35]	4.00	> 6.00	33	3.3	5.66	10	60							
C#CCN(CC)C1CCc2ccc(OC(=O)N(C)C)cc21 (centres unmarked) [Compound 31]	< 3.00	< 3.00			5.00	110		>100 µmol/kg	>100 µmol/kg					
C#CCNC1CCc2ccc(OC(=O)N(C)CCCC)cc21 (centres unmarked) [Compound 81]			920	23	4.94	40	90	>>100 μmoles/kg	>>100 μmoles/kg				>120	
C#CCNC1CCc2ccc(OC(=O)N(C)CCC)cc21 (centres unmarked) [Compound 26]	3.58	3.94	1200	9	4.77	120	30 to 60	333 µmol/kg	>>440 μmoles/kg					
C#CCNC1CCc2ccc(OC(=O)N(C)c3ccccc3)cc21 (centres unmarked) [Compound 62]					6.24	290	60	>>200 μmoles/kg	>>200 μmoles/kg	4.00	4.10			
C#CCNC1CCc2ccc(OC(=O)N(C)C3CCCCC3)cc21 (centres unmarked) [Compound 38]					4.48	>1000		>400 µmol/kg	>400 µmol/kg	5.00	3.77			
CNC1CCc2ccc(OC(=O)N(C)C)cc21 (centres unmarked) [Compound 8]						10.0	15 to 30	>>50 μmoles/kg	>>50 μmoles/kg		4.30		>60	87
C#CCNC1CCc2ccc(OC(=O)N(C)C)cc21 (centres unmarked) [Compound 23]	3.22	3.10	255			22.4							70	
